Experimental data published in patent publication US5100907A, “Hydantoin esters” (Lonza, Inc., priority 1990, dated 1992).

Columns and labels:
[1] = test system: Staphylococcus aureus; experiment: Antimicrobial study against Staphylococcus aureus (gram-positive bacteria); assay type: cell-based; settings: methylolated C8/10 10,800 ppm, methylolated lauric 11,400 ppm, DMDMH 3,000 ppm, others 14,700 ppm
Description: (§1) The antimicrobial properties of typical esters (I) and (Ia) were tested by minimum inhibitory concentration (MIC) tests, along with certain known substances, against […] strains of organisms: a mold, Aspergillus niger; a gram-positive bacteria, Staphylococcus aureus; and two gram-negative bacteria, Escherichia coli and Pseudomonas aeruginosa. […] These tests were used to determine any effect on biocidal activity of the varying chain length of the ester.
(§2) The known substances, on which identical tests were also performed, included the biocide, dimethyloldimethylhydantoin or DMDMH (iv), and a series of three surfactants, i.e., the three common emulsifiers, sodium lauryl sulfate (SLS); ethylene glycol distearate (EGDS), in the form of the commercial product PEGOSPERSE 50 DS (Lonza Inc.); and polyoxyethylene 20 sorbitan monoleate (POE 20 SMO), in the form of the commercial product GLYCOSPERSE 0 20 (Lonza Inc.).
(§3) The tests entailed contaminating a preexisting micro-colony with a known quantity (ppm, concentration) of test material. Each colony was then examined periodically over a one week period. […] A test was deemed non-efficacious when there was no decrease in colony size. In an effort to avoid any possible solvent effect, the micro-study was conducted in a totally aqueous solvent system without use of any other solvent.

[2] = test system: Staphylococcus species b; experiment: Preservative challenge test against Staphylococcus species b; assay type: cell-based; settings: end of 14 day period
Description: (§4) Microbiological challenge tests were also conducted with the lauric and oleic esters (I), representing molecules having C12 and C18 aliphatic fatty acid chain length moieties, respectively.
(§5) These preservative challenge tests were used to determine the biocidal performance of these two esters (I) in aqueous solution and dispersion formulations inoculated with a given one of two test organisms, previously isolated from a contaminated calcium carbonate (CaCO3) dispersion, i.e. gram-positive bacteria, designated Staphylococcus species a and Staphylococcus species b, as compared to three known biocides or preservatives, designated as DANTOGARD (trademark), Tektamer 38 (1,2-dibromo-2,4-dicyanobutane) and Nuodex PMA-18.
(§6) The solution formulation was represented by the inclusion of the test sample as preservative system in deionized water, and the dispersion formulation was represented by the inclusion of the test sample as preservative system in a CaCO3 aqueous dispersion (identified as Hydrocarb 60), the latter typifying a dispersed pigment medium, e.g. as used in a paint or other industrial dispersion or slurry. The antimicrobial activity of the test samples was evaluated at individually selective concentrations.
(§7) All these liquid samples were stored at room temperature until the start of the tests. The test organisms were maintained or nutrient agar at 4° C. and subcultured in nutrient broth (Difco), and a 24 hour culture incubated at 35° C. was used for the testing over a challenge test time period of 14 days.
(§8) The test formulations were prepared per a standardized procedure, by placing 20 ml aliquots of the stored sample into sterile test tubes, and then adding 0.1 ml of a standardized 10^6 suspension of a 24 hour culture in nutrient broth. Plate counts were taken immediately to determine the initial level of the microbial population, and the containers were incubated at 20°-25° C. Plate counts were retaken at 1, 3, 7 and 14 days, with the final reductions being calculated from the 14 days results.

[3] = test system: Escherichia coli; experiment: Antimicrobial study against Escherichia coli (gram-negative bacteria); assay type: cell-based; settings: methylolated C8/10 10,800 ppm, methylolated lauric 11,400 ppm, DMDMH 3,000 ppm, others 14,700 ppm
Description: as §1, §2, §3

[4] = Emulsion stability tests; assay type: physicochemical
Method in brief: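 Emulsions of test ester (2%), myristyl propionate (7%) and water (91%) were homogenized for one minute. Stability was judged by periodic visual examination in capped jars over a 55 day period, with precursor esters (Ia) tested alongside.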

[5] = Dispersion stability tests; assay type: physicochemical; settings: for stability of dispersions in water: 0.5%, and even 5% active levels
[6] = test system: Staphylococcus species a; experiment: Preservative challenge test against Staphylococcus species a; assay type: cell-based; settings: end of 14 day period
Description: as §4, §5, §6, §7, §8

[7] = Physical properties of methylolated MHEDMH esters (I): viscosity; assay type: physicochemical; settings: at 25° C.
[8] = calcium carbonate aqueous dispersions

SMILES	Colony Count ([1]; Day 0)	Colony Count ([1]; Day 1)	Colony Count ([1]; Day 2)	Colony Count ([1]; Day 3)	Colony Count ([1]; Day 7)	effectiveness as preservative ([2]; water)	Colony Count ([3]; Day 0)	Colony Count ([3]; Day 1)	Colony Count ([3]; Day 2)	Colony Count ([3]; Day 3)	Colony Count ([3]; Day 7)	ability to stabilize emulsions [4]	duration of stabilized emulsions [4]	emulsion quality, decreasing order of rank [4]	dispersion quality, decreasing order of rank [5]	stability of dispersions in water [5]	effectiveness as preservative ([6]; water)	effectiveness as preservative [2, 8]	Viscosity [7] [cts]	effectiveness as preservative [6, 8]
CCCCCCCCCCCC(=O)OCCN1C(=O)N(CO)C(=O)C1(C)C [Methylolated Lauric Ester, 2-(3-hydroxymethyl-5,5-dimethyl-1,3-diazacyclopentane-2,4-dion-1-yl)-ethylester of lauric acid]	TNC	4,000 × 1,000	< 0.01 × 1,000	< 0.01 × 1,000	< 0.01 × 1,000	effective as preservatives in water	TNC	TNC	< 0.01 × 1,000	< 0.01 × 1,000	< 0.01 × 1,000	the best emulsifiers tested	more than 22 days	cocoate, laurate>oleate,isostearate>stearate>C8/10 ester>acetate	isostearate>oleate>cocoate>laurate>C8/10ester>>stearate>acetate	stable for weeks	effective as preservatives in water			
CCCCCCCC/C=C\CCCCCCCC(=O)OCCN1C(=O)N(CO)C(=O)C1(C)C [Methylolated Oleic Ester, 2-(3-hydroxymethyl-5,5-dimethyl-1,3-diazacyclopentane-2,4-dion-1-yl)-ethylester of oleic acid]	TNC	4,200 × 1,000	< 0.01 × 1,000	< 0.01 × 1,000	< 0.01 × 1,000	effective as preservatives in water	4,000 × 1,000	< 0.01 × 1,000	< 0.01 × 1,000	< 0.01 × 1,000	< 0.01 × 1,000			cocoate, laurate>oleate,isostearate>stearate>C8/10 ester>acetate	isostearate>oleate>cocoate>laurate>C8/10ester>>stearate>acetate	stable for weeks	effective as preservatives in water	effective as a preservative in calcium carbonate aqueous dispersions	501	effective as a preservative in calcium carbonate aqueous dispersions
